From article PMC8592419 (PLoS ONE, 2021)
In brackets after ≈: the same amount, converted by molar mass. Like-named read-outs stand apart in the source and are kept apart here. Where a SMILES comes first, the peptide text is derived from it.

Experiments:
[1] = system: M. abscessus clinical isolate MAB13; assay: In vitro susceptibility testing (DST), CLSI broth microdilution; assay type: cell-based, M. abscessus subsp. massiliense; parameters: key to DST profile, interpretation, Day 3 / DST profile, interpretation, Day 5 / DST profile, interpretation, Day 14: S, susceptible; I, intermediate; R, resistant; details: for MIC: Mycobacteroides abscessus
Procedure: (§1) Drug susceptibility testing (DST) was performed according to the Clinical and Laboratory Standards Institute (CLSI) guidelines M24-A2 [42] using the broth microdilution method to determine the minimum inhibitory concentration (MIC). […] Colonies were grown at an adjusted cell density to a 0.5 McFarland standard and further diluted to 5×10^5 CFU/ml. […] These were then incubated at 37°C for 3, 5 and 14 days. The MIC was defined as the concentration in which no visible growth was observed. The results were interpreted according to the guidelines of CLSI. Inducible resistance was inferred by changes in MIC values from being susceptible at day 3 to resistant at day 14.

[2] = system: M. abscessus clinical isolate MAB14; assay: as above; assay type: cell-based, M. abscessus subsp. massiliense; parameters: key to DST profile, interpretation, Day 3 / DST profile, interpretation, Day 5 / DST profile, interpretation, Day 14: S, susceptible; I, intermediate; R, resistant; details: for MIC: Mycobacteroides abscessus
Procedure: as §1

[3] = system: M. abscessus clinical isolate MAB15; assay: as above; assay type: cell-based, M. abscessus subsp. massiliense; parameters: key to DST profile, interpretation, Day 3 / DST profile, interpretation, Day 5 / DST profile, interpretation, Day 14: S, susceptible; I, intermediate; R, resistant; details: for MIC: Mycobacteroides abscessus
Procedure: as §1

[4] = system: M. abscessus clinical isolate MAB12; assay: as above; assay type: cell-based, M. abscessus subsp. massiliense; parameters: key to DST profile, interpretation, Day 3 / DST profile, interpretation, Day 5 / DST profile, interpretation, Day 14: S, susceptible; I, intermediate; R, resistant; details: for MIC: Mycobacteroides abscessus
Procedure: as §1

[5] = system: M. abscessus clinical isolate MAB16; assay: as above; assay type: cell-based, M. abscessus subsp. massiliense; parameters: key to DST profile, interpretation, Day 3 / DST profile, interpretation, Day 5 / DST profile, interpretation, Day 14: S, susceptible; I, intermediate; R, resistant; details: for MIC: Mycobacteroides abscessus
Procedure: as §1

[6] = system: sixteen clinical Mab isolates; assay: 24-hour bactericidal activity assay, summary over isolates; assay type: cell-based, Mycobacterium abscessus; details: majority of the tested strains (10/16 isolates); equivalent of <50 μg/ml
Procedure: (§2) Briefly, serial dilutions of the AMPs were prepared with potassium phosphate buffer (PPB) from the concentration range of 3.125 to 400 μg/ml and then 50 μl of each dilution were added to each 96-well plate. Colonies of the isolate were suspended and then further diluted in Mueller-Hinton broth to obtain a final concentration of 1×10^3 CFU/ml (optimized according to the available AMP stock concentration). Fifty microliters of this inoculum were added to each well of the plates. The plates were incubated for 3 days at 37°C. Plain media and bacterial suspensions without AMPs were used as negative and positive controls. The MIC values were read and recorded. All assays were performed in duplicate and two independent experiments.
Potential AMPs from the screening assays were subjected to determine the 24-hour bactericidal activity assays (corresponding to the common time of administration) with sixteen clinical Mab isolates using the protocol as described above. To observe the early antimicrobial activities, the plates were incubated for 24 h at 37°C. The samples from each well were further diluted in 0.05% Tween 80 and inoculated on Mueller-Hinton agar. After incubation for 3 days at 37°C, the colony-forming units (CFUs) were counted and calculated for the percentage of killing using the following formula: % killing = 1 - (CFU sample/ CFU control) ×100.

[7] = system: human red blood cells (RBCs); assay: Hemolytic toxicity test; assay type: cell-based; details: for Hemolytic activities (%hemolysis): human RBCs, 1 h at 37°C, mean±SD of duplicates, two independent experiments
Procedure: For the hemolytic toxicity test, red blood cells (RBCs) from fresh blood samples of healthy volunteers were obtained by centrifugation at 1,000 rpm for 5 min. The cells were washed three times with sterile phosphate buffered saline (PBS) and adjusted into 1×10^8 cells/ml. AMPs were diluted with PPB in ranging from 6.25 to 400 μg/ml. Fifty microliters of the RBC suspensions and 50 μl of AMP solutions were added to 1.5 ml sterile microtubes, incubated for 1 h at 37°C and then centrifuged at 1,000 rpm for 5 min. The supernatants were transferred to new 96-well microtiter plates for measurement of the absorbance at 540 nm using a microplate reader. RBC suspensions treated with 2% (v/v) Triton X-100 and PBS solution were used as positive and negative controls. The percentages of hemolysis were calculated using the following formula: % of RBC lysis = 100 × [(Test—PBS) / (Positive control—PBS)]. All assays were performed in duplicate and two independent experiments.

[8] = system: clinical isolates of M. abscessus; assay: In vitro susceptibility of potential AMPs, 3 days, summary over isolates; assay type: cell-based, Mycobacterium abscessus; details: isolates MAB01 and MAB03
Procedure: as §2
(§3) For the in vitro antimicrobial susceptibility, the same protocol as described above was used. The culture plates were further incubated up to 3 days at 37°C. The MIC values were read and recorded.

[9] = system: M. abscessus clinical isolate MAB08; assay: In vitro antimicrobial susceptibility of potential AMPs, broth microdilution, 3 days; assay type: cell-based, M. abscessus subsp. abscessus; details: 3 days at 37°C
Procedure: as §2, §3

[10] = system: M. abscessus clinical isolate MAB04; assay: as above; assay type: cell-based, M. abscessus subsp. abscessus; details: 3 days at 37°C
Procedure: as §2, §3

Mab ATCC19977 strain = assay type: cell-based, Mycobacterium abscessus
Procedure: as §2

[11] = 72 h, day 3, read-out: DST profile, MIC value, Day 3
[12] = 120 h, day 5, read-out: DST profile, MIC value, Day 5
[13] = 336 h, day 14, read-out: DST profile, MIC value, Day 14

## CC[C@H]1OC(=O)[C@H](C)[C@@H](O[C@H]2C[C@@](C)(OC)[C@@H](O)[C@H](C)O2)[C@H](C)[C@@H](O[C@@H]2O[C@H](C)C[C@H](N(C)C)[C@H]2O)[C@](C)(OC)C[C@@H](C)C(=O)[C@H](C)[C@@H](O)[C@]1(C)O [CLA, Clarithromycin]
[1]; [11]
  MIC: 8 µg/mL (≈ 10.7 µM)
[1]; [12]
  MIC: 32 µg/mL (≈ 42.8 µM)
[1]; [13]
  MIC: 32 µg/mL (≈ 42.8 µM)
[1]; day 3, CLSI interpretation
  DST profile, interpretation, Day 3: R
[1]; day 5, CLSI interpretation
  DST profile, interpretation, Day 5: R
[1]; day 14, CLSI interpretation
  DST profile, interpretation, Day 14: R
[2]; [11]
  MIC: 512 µg/mL (≈ 685 µM)
[2]; [12]
  MIC: 512 µg/mL (≈ 685 µM)
[2]; [13]
  MIC: 512 µg/mL (≈ 685 µM)
[2]; day 3, CLSI interpretation
  DST profile, interpretation, Day 3: R
[2]; day 5, CLSI interpretation
  DST profile, interpretation, Day 5: R
[2]; day 14, CLSI interpretation
  DST profile, interpretation, Day 14: R
[3]; [11]
  MIC: 4 µg/mL (≈ 5.35 µM)
[3]; [12]
  MIC: 4 µg/mL (≈ 5.35 µM)
[3]; [13]
  MIC: 4 µg/mL (≈ 5.35 µM)
[3]; day 3, CLSI interpretation
  DST profile, interpretation, Day 3: I
[3]; day 5, CLSI interpretation
  DST profile, interpretation, Day 5: I
[3]; day 14, CLSI interpretation
  DST profile, interpretation, Day 14: I
[4]; [11]
  MIC: 1020 µg/mL (≈ 1370 µM)
[4]; [12]
  MIC: 1020 µg/mL (≈ 1370 µM)
[4]; [13]
  MIC: 1020 µg/mL (≈ 1370 µM)
[4]; day 3, CLSI interpretation
  DST profile, interpretation, Day 3: R
[4]; day 5, CLSI interpretation
  DST profile, interpretation, Day 5: R
[4]; day 14, CLSI interpretation
  DST profile, interpretation, Day 14: R
[5]; [11]
  MIC: 0.2 µg/mL (≈ 0.267 µM)
[5]; [12]
  MIC: 2 µg/mL (≈ 2.67 µM)
[5]; [13]
  MIC: 2 µg/mL (≈ 2.67 µM)
[5]; day 3, CLSI interpretation
  DST profile, interpretation, Day 3: S
[5]; day 5, CLSI interpretation
  DST profile, interpretation, Day 5: S
[5]; day 14, CLSI interpretation
  DST profile, interpretation, Day 14: S

## CC[C@H](C)[C@H](NC(=O)[C@H](CCCCN)NC(=O)[C@H](CCCNC(=N)N)NC(=O)CNC(=O)[C@H](CC(C)C)NC(=O)[C@H](CO)NC(=O)[C@H](CCCNC(=N)N)NC(=O)[C@H](CC(C)C)NC(=O)CNC(=O)CN)C(=O)N[C@@H](CC(C)C)C(=O)N[C@@H](CCCNC(=N)N)C(=O)N[C@@H](C)C(=O)N[C@@H](Cc1c[nH]c2ccccc12)C(=O)N[C@@H](CCCCN)C(=O)N[C@@H](CCCCN)C(=O)N[C@@H](Cc1ccc(O)cc1)C(=O)O [S61] (H-GGLRSLGRKILRAWKKY-OH)
[6]
  MIC with ~99% killed within 24 h, in μM: less than 24.97 μM
[7]; 6.25 µg/mL
  Hemolytic activities (%hemolysis): -0.18±0.75%
[7]; 12.5 µg/mL
  Hemolytic activities (%hemolysis): 4.58±4.48%
[7]; 25 µg/mL
  Hemolytic activities (%hemolysis): 6.34±4.98%
[7]; 50 µg/mL
  Hemolytic activities (%hemolysis): 9.15±1.99%
[7]; 100 µg/mL
  Hemolytic activities (%hemolysis): 10.74±0.75%
[7]; 200 µg/mL
  Hemolytic activities (%hemolysis): 11.44±0.25%
[7]; 400 µg/mL
  Hemolytic activities (%hemolysis): 13.03±0.00%
[8]
  MIC values after 3 days: 3.13 µM (≈ 6.27 µg/mL)
[9]
  Antimicrobial peptides against M. abscessus isolates, MIC value: >400 µg/mL
[10]
  Antimicrobial peptides against M. abscessus isolates, MIC value: >400 µg/mL
other
  MIC after 3 days, MAB01 and MAB03: < 50 µg/mL
Mab ATCC19977 strain
  MIC values: 200 µg/mL (≈ 99.9 µM)

## CC[C@H](C)[C@H](NC(=O)[C@H](CCCCN)NC(=O)[C@H](CCCNC(=N)N)NC(=O)CNC(=O)[C@H](CC(C)C)NC(=O)[C@H](CO)NC(=O)[C@H](CCCNC(=N)N)NC(=O)[C@H](CC(C)C)NC(=O)CNC(=O)CN)C(=O)N[C@@H](CC(C)C)C(=O)N[C@@H](CCCNC(=N)N)C(=O)N[C@@H](C)C(=O)N[C@@H](Cc1c[nH]c2ccccc12)C(=O)N[C@@H](CCCCN)C(=O)O [S63] (H-GGLRSLGRKILRAWK-OH)
[6]
  MIC with ~99% killed within 24 h: < 29.22 µM
[7]; 6.25 µg/mL
  Hemolytic activities (%hemolysis): -0.53±0.75%
[7]; 12.5 µg/mL
  Hemolytic activities (%hemolysis): 3.52±4.98%
[7]; 25 µg/mL
  Hemolytic activities (%hemolysis): 5.81±3.73%
[7]; 50 µg/mL
  Hemolytic activities (%hemolysis): 7.04±3.98%
[7]; 100 µg/mL
  Hemolytic activities (%hemolysis): 8.27±3.73%
[7]; 200 µg/mL
  Hemolytic activities (%hemolysis): 9.68±2.74%
[7]; 400 µg/mL
  Hemolytic activities (%hemolysis): 10.56±1.99%
[7]; at the MICs level, single figure of the abstract
  hemolysis at the MICs level: 1.50%
[8]
  MIC values after 3 days: 3.65 to 7.30 µM
[9]
  Antimicrobial peptides against M. abscessus isolates, MIC value: >400 µg/mL
[10]
  Antimicrobial peptides against M. abscessus isolates, MIC value: >400 µg/mL
Mab ATCC19977 strain
  MIC values: 200 µg/mL (≈ 117 µM)
